Experimental findings from patent US8420853B2, “Derivatives of cyclic compound and the use thereof” (Wonkisopharm Co., Ltd, priority 2006, dated 2013) are described below.

The data set concerns mouse melanoma B-16 cells. Briefly: Inhibitory effect on melanin synthesis. It is filed as cell-based. How it is done: In order to confirm the inhibition effect of the compounds prepared in Examples 1 to 31 and hydroquinone on melanin biosynthesis, the experiment was performed with the procedure described in the literature (Lotan R., Lotan D. Cancer Res., 40, pp. 3345-3350, 1980).
[…] The medium was cultured for 3 days and the cultured cells were separated from the medium by treating with trypsin. The separated cells were centrifuged and the melanin was extracted therefrom. The extract was treated with 1 ml of sodium hydroxide solution (1N) and boiled for 10 mins to resolve the melanin. Optical density (OD) value was measured 3 times at 475 nm by a spectrophotometer and the amount of melanin was expressed by absorbance(OD)/1×10^6 cells. The inhibitory effect of melanin (%) was calculated from the melanin synthesis as compared with the control group.

Setting [1] is: Mus musculus, B16, 72 h, concentration 5 ug/ml, B-16 cells cultured 3 days, vs control group.
Where [2] appears, read: Mus musculus, B16, 72 h, concentration 20 ug/ml, B-16 cells cultured 3 days, vs control group.
Where [3] appears, read: concentration 5 ug/ml, B-16 cells cultured 3 days, vs control group.
[4] abbreviates: concentration 20 ug/ml, B-16 cells cultured 3 days, vs control group.
Setting [5] is: mouse B-16 melanoma cells, statement in words.

In the case of `CCCC(=O)O[C@@H]1CCCC[C@H]1OC(=O)CCC` (relative stereo) [Example 1, butyric acid 2-butyryloxy-trans-cyclohexyl ester], the inhibition (commonly the relative decrease from the control value, in per cent) at 5 µg/mL under setting [1] turned out to be 30%. Under setting [2], at 20 µg/mL the inhibition was 55%.
For `CCCCC(=O)O[C@@H]1CCCC[C@H]1OC(=O)CCCC` (relative stereo) [Example 2, pentanoic acid 2-pentanoyloxy-trans-cyclohexyl ester] the same measures were 45% and 78%.
For `CC(C)=CC(=O)O[C@@H]1CCCC[C@H]1OC(=O)C=C(C)C` (relative stereo) [Example 3, 3-methyl-2-butenoic acid 2-(3-methyl-2-butenoyloxy)-trans-cyclohexyl ester] the same measures were 39% and 72%.
`CCCCCC(=O)O[C@@H]1CCCC[C@H]1OC(=O)CCCCC` (relative stereo) [Example 4, hexanoic acid 2-hexanoyloxy-trans-cyclohexyl ester]: testing at 5 µg/mL under setting [1] gave an inhibition of 41%. The compound further registered an inhibition at 20 µg/mL under setting [2] of 71%.
For `CCCCCCC(=O)O[C@@H]1CCCC[C@H]1OC(=O)CCCCCC` (relative stereo) [Example 5, heptanoic acid 2-heptanoyloxy-trans-cyclohexyl ester] the same measures were 35% and 56%.
For `CCCCCCCC(=O)O[C@@H]1CCCC[C@H]1OC(=O)CCCCCCC` (relative stereo) [Example 6, octanoic acid 2-octanoyloxy-trans-cyclohexyl ester] the same measures were 30% and 51%.
On the same counts, the results for `CCCCC(CC)C(=O)O[C@@H]1CCCC[C@H]1OC(=O)C(CC)CCCC` (relative stereo) [Example 7, 2-ethyl-hexanoic acid 2-(2-ethyl-hexanoyloxy)-trans-cyclohexyl ester] are 42% and 69%.
With `CCCCCCCCC(=O)O[C@@H]1CCCC[C@H]1OC(=O)CCCCCCCC` (relative stereo) [Example 8, nonanoic acid 2-nonanoyloxy-trans-cyclohexyl ester], the inhibition at 5 µg/mL under setting [1] was found to be 21%. This compound gave an inhibition at 20 µg/mL under setting [2] of 47%.
For `CCCCCCCCCC(=O)O[C@@H]1CCCC[C@H]1OC(=O)CCCCCCCCC` (relative stereo) [Example 9, decanoic acid 2-decanoyloxy-trans-cyclohexyl ester] the same measures were 19% and 39%.
On the same counts, the results for `CCCCCCCCCCCC(=O)O[C@@H]1CCCC[C@H]1OC(=O)CCCCCCCCCCC` (relative stereo) [Example 10, lauric acid 2-lauroyloxy-trans-cyclohexyl ester] are 9% and 15%.
`CC(C)=CC(=O)O[C@@H]1CCC[C@H]1OC(=O)C=C(C)C` (relative stereo) [Example 12, 3-methyl-2-butenoic acid 2-(3-methyl-2-butenoyloxy)-trans-cyclopentyl ester]: under setting [1], at 5 µg/mL the inhibition was 27%. This compound also came in with an inhibition at 20 µg/mL under setting [2] of 56%.
In turn, `CCCCCCCC(=O)O[C@@H]1CCC[C@H]1OC(=O)CCCCCCC` (relative stereo) [Example 13, octanoic acid 2-octanoyloxy-trans-cyclopentyl ester] yielded an inhibition at 5 µg/mL under setting [1] of 30%. The same compound displayed an inhibition at 20 µg/mL under setting [2] of 54%.
For `CCCCC(CC)C(=O)O[C@@H]1CCC[C@H]1OC(=O)C(CC)CCCC` (relative stereo) [Example 14, 2-ethyl-hexanoic acid 2-(2-ethyl-hexanoyloxy)-trans-cyclopentyl ester] the same measures were 31% and 57%.
Consider `C=CCCC(=O)O[C@@H]1CCCC[C@H]1OC(=O)CCC=C` (relative stereo) [Example 15, 4-pentenoic acid 2-(4-pentenoyloxy)-trans-cyclohexyl ester], for which the inhibition at 5 µg/mL under setting [1] is 39%. The compound further gave an inhibition at 20 µg/mL under setting [2] of 72%.
On the same counts, the results for `CC(C)=CC(=O)O[C@H]1CCCC[C@H]1OC(=O)C=C(C)C` [Example 11, 3-methyl-2-butenoic acid 2-(3-methyl-2-butenoyloxy)-cis-cyclohexyl ester] are 31% and 54%.
In the case of `CC(C)=CC(=O)Oc1ccccc1OC(=O)C=C(C)C` [Example 16, 3-methyl-2-butenoic acid 2-(3-methyl-2-butenoyloxy)-phenyl ester], the inhibition at 5 µg/mL under setting [1] amounted to 15%. Under setting [2], the inhibition at 20 µg/mL turned out to be 27%.
For `CCCCCCCC(=O)Oc1ccccc1OC(=O)CCCCCCC` [Example 17, octanoic acid 2-octanoyloxy-phenyl ester] the same measures were 9% and 18%.
On the same counts, the results for `CC(C)=CC(=O)Oc1cc2ccccc2cc1OC(=O)C=C(C)C` [Example 18, 3-methyl-2-butenoic acid 3-(3-methyl-2-butenoyloxy)-naphthalen-2-yl ester] are 47% and 67%.
On the same counts, the results for `CCCCCCCC(=O)Oc1cc2ccccc2cc1OC(=O)CCCCCCC` [Example 19, octanoic acid 3-octanoyloxy-naphthalen-2-yl ester] are 39% and 61%.
Consider `CCCCC(CC)C(=O)Oc1cc2ccccc2cc1OC(=O)C(CC)CCCC` (stereo not drawn) [Example 20, 2-ethyl-hexanoic acid 3-(2-ethyl-hexanoyloxy)-naphthalen-2-yl ester], for which the inhibition at 5 µg/mL under setting [1] was determined as 29%. The inhibition at 20 µg/mL under setting [2] is 55%.
For `CCCCCCCC(=O)Oc1cccnc1OC(=O)CCCCCCC` [Example 21, octanoic acid 3-octanoyloxy-pyridin-2-yl ester] the same measures were 48% and 81%.
For `CC(C)=CC(=O)OC1COCC1OC(=O)C=C(C)C` (stereo not drawn) [Example 22, 3-methyl-2-butenoic acid 4-(3-methyl-2-butenoyloxy)-tetrahydrofuran-3-yl ester] the same measures were 27% and 49%.
For `CCCCCCCC(=O)OC1CCCC(OC(=O)CCCCCCC)C1OC(=O)CCCCCCC` (stereo not drawn) [Example 24, octanoic acid 2,3-bis-octanoyloxy-cyclohexyl ester] the same measures were 39% and 69%.
Consider `CCCC(=O)OC1C(OC(=O)CCC)C(OC(=O)CCC)C(OC(=O)CCC)C(OC(=O)CCC)C1OC(=O)CCC` (stereo not drawn) [Example 25, myo-inositol hexa-O-butanoate], for which the “Melanin synthesis inhibition (%)” value is, setting by setting: under setting [3], 27%; under setting [4], 59%.
Take `CC(C)=CC(=O)OC1OC[C@@H](OC(=O)C=C(C)C)[C@@H](OC(=O)C=C(C)C)[C@@H]1OC(=O)C=C(C)C` (stereo partly drawn) [Example 26]: the “Melanin synthesis inhibition (%)” value reads like this: under setting [3], 31%; under setting [4], 61%.
On the same counts, the results for `CCCC(=O)OC[C@H]1O[C@H](OC)[C@H](OC(=O)CCC)[C@@H](OC(=O)CCC)[C@@H]1OC(=O)CCC` [Example 27, methyl-alpha-D-glucose tetra-O-butanoate] are 29% and 49%.
With `CC(C)CCOC1CCCCC1OCCC(C)C` (stereo not drawn) [Example 28, 1,2-bis-(3-methyl-buthoxy)-cyclohexane], the “Melanin synthesis inhibition (%)” value reads like this: under setting [3], 25%; under setting [4], 49%.
As for `CCCCCOC1CCCCC1OCCCCC` (stereo not drawn) [Example 29, 1,2-bis-pentyloxy-cyclohexane], the inhibition at 5 µg/mL under setting [1] was 22%. Further, the inhibition at 20 µg/mL under setting [2] stood at 43%.
On the same counts, the results for `CCCCCCOC1CCCCC1OCCCCCC` (stereo not drawn) [Example 30, 1,2-bis-hexyloxy-cyclohexane] are 18% and 41%.
For the compound `CCCCCCCCOC1CCCCC1OCCCCCCCC` (stereo not drawn) [Example 31, 1,2-bis-octyloxy-cyclohexane], the inhibition at 5 µg/mL under setting [1] stood at 15%. This compound also had an inhibition at 20 µg/mL under setting [2] of 31%.
`Oc1ccc(O)cc1` [Hydroquinone, reference compound] returned an inhibition at 1 µg/mL (Mus musculus, B16, 72 h, concentration 1 ug/ml, B-16 cells cultured 3 days, vs control group) of 45%. Moreover, the “Melanin synthesis inhibition (%)” value under setting [3] is listed as “Cell death”. For the same compound, under setting [5], the cytotoxicity result is recorded as “high levels of cytotoxicity” and the “inhibitory activity of melanin synthesis” value is “potent inhibitory activity at low concentration”.
For “butyric acid 3-methyl-2-butenoic acid 2,3-bis-(3-methyl-2-butenoyloxy)-phenyl ester [Example 23]”, the “Melanin synthesis inhibition (%)” value reads like this: under setting [3], 48%; under setting [4], 75%.
